Results from paper PMC10835127, “Viruses traverse the human proteome through peptide interfaces that can be biomimetically leveraged for drug discovery” (Proceedings of the National Academy of Sciences of the …, 2024).
Values after ≈ are worked out from the molar mass of the structure shown. Where two headings read alike, the source gives them in different places. No end group written: not given here.

Legend:
[1] = Kinetic solubility; format: physicochemical; conditions: PBS pH 7.4 buffer, pH 7.4, aqueous buffer, kinetic from dmso stock
Protocol: 10 mM DMSO Stock solutions of tested compounds were distributed into filtration plate (Multiscreen Durapore 0.45µm) containing PBS pH 7.4 buffer to a final maximum concentration of 130 μM (1.3 % DMSO/buffer). Solutions or suspensions were shaken for 30 min at room temperature. The samples were filtered under vacuum into a collection plate and diluted 50 % with ACN for UV analysis. Quantification was performed against a Reference plate containing the same tested compounds fully solubilized in ACN/PBS buffer 1:1. Reference and Sample plates were analyzed by UPLC/UV-MS using a generic UPLC method. […]

[2] = Microsomal stability, human liver microsomes; format: in vitro ADME; conditions: both sexes, pH 7.4, read-out: CLint hLM
Protocol: (§1) Tested compounds (1 μM) were incubated with pooled human liver microsomes (Xenotech; pooled male and female) and pooled mouse liver microsomes (Xenotech; male CD-1 mice).
(§2) Microsomes (final protein concentrations of 0.25 and 0.5 mg/ml, 0.1 M phosphate buffer pH 7.4) containing tested compound (final substrate concentration 1 μM; final DMSO concentration 0.25 %) were preincubated at 37 °C prior to the addition of NADPH (final concentration 1 mM) to initiate the reaction. The final incubation volume was 200 μl. 3 species-specific control compounds were included with each species. At 5 time points (0, 5, 10, 20, and 40 min), reactions were stopped by transferring 50 μl of the incubation mixture into 0.5 μM carbamazepine in acetonitrile. Tested compound concentrations were analyzed by LC-MS/MS and the resulting data were used to determine the half-life and intrinsic clearance of the compound in each

[3] = Microsomal stability, mouse liver microsomes; format: in vitro ADME; conditions: male, CD-1, mouse, pH 7.4; murine liver microsomes; read-out: CLint mLM
Protocol: as §1, §2

[4] = Cryopreserved hepatocyte stability, human; format: in vitro ADME; conditions: cryopreserved hepatocytes, read-out: CLint hHep
Protocol: (§3) Cryopreserved hepatocyte stability
(§4) Tested compounds (1 μM) were incubated with human cryopreserved hepatocytes (pool of 5) (IVT Celsis) and mouse cryopreserved hepatocytes (IVT Celsis). Hepatocytes (1, 0.5 or 0.25 x10^6 cells/mL, Williams’ Medium E (WME) with 4 mM L-glutamine and 2 mM magnesium sulphate) containing tested compound (final substrate concentration 1 μM; final DMSO concentration 0.25 %) were preincubated at 37 °C. The final incubation volume was 500 μl. 3 species-specific control compounds were included with each species. At 7 time points (0, 10, 20, 40, 60, 90, and 120 min), reactions were stopped by transferring 50 μl of the incubation mixture into 0.5 μM carbamazepine in cold acetonitrile. Tested compound concentrations were analyzed by LC-MS/MS and the resulting data were used to determine the half-life and intrinsic clearance of the compound in each species. […]

[5] = Cryopreserved hepatocyte stability, mouse; format: in vitro ADME; conditions: cryopreserved hepatocytes, murine hepatocytes, read-out: CLint mHep
Protocol: as §3, §4

[6] = Plasma protein binding by equilibrium dialysis, murine; format: in vitro ADME; conditions: mouse, read-out: PPB (% bound)
Protocol: The free and bound fractions of the tested compounds in mouse and human plasma were determined by equilibrium dialysis using a 96-well Teflon dialysis unit (HTDialysis plate complete unit, HT Dialysis, USA). The HTDialysis plate complete unit consists of a 96-well plate with wells vertically bisected by a semipermeable membrane (membranes strips 12 to 14 kDa) creating two chambers. A 125 μL aliquot of plasma containing tested compound at 10 μM was placed on one side and 125 μL of Dulbecco‘s phosphate buffered saline (D-PBS) on the other. The plate was incubated at 37 °C for 6 hr under gentle agitation. Then, samples from both plasma and buffer compartment were analyzed by a LC-MS/MS method to measure the free fraction and the bound fraction to the plasma proteins. […]

[7] = PK parameters in mice; format: in vivo, male Swiss (CD-1) mice; conditions: male, Swiss (CD-1), plasma, mouse
Protocol: PK parameters and tissue distribution in mice
The pharmacokinetic profiles of the tested compounds were evaluated in male Swiss (CD-1) mice around 5-6 weeks old (3 animals per sampling time). […]
0.2 % Tween 80 in water. Blood samples were collected (0.25 mL) from the sinus retro-orbital […]
24 hr for p.o. route. The blood samples were immediately centrifuged at 2500 rpm at +4 °C, and the plasma was stored at −80 °C. 50 μL of plasma sample was taken and 150 μL of acetonitrile was added. After protein precipitation, analysis of the molecule was performed using LC-MS/MS to determine plasma compound concentration. For liver and lung collection, 3 animals per group were involved and sampled after 2 hr and 24 hr upon 20 mg/kg p.o. administration. Animals were perfused with around 10 mL of saline solution directly into the heart to extract the maximal blood sample from the liver and the lung. Animals were then sacrificed by cervical dislocation and liver

[8] = test system: Dengue virus; conditions: in vitro; cited from earlier work
[9] = test system: influenza A H1N1 virus; experiment: microbe, parasite or virus in culture; conditions: H1N1, A549, read-out: Neuraminidase activity assay IC50
[10] = test system: HIV1 strain NL4-3; format: cell-based; conditions: normalized mean of HIV1 replication readout
[11] = test system: HCV replicon; format: cell-based; conditions: normalized mean of HCV replicon readout
[12] = test system: F. novicida (strain U112); format: cell-based; conditions: normalized area under the curve
[13] = target: T1, MitoNEET (Homo sapiens, UniProt Q9NZ45); experiment: In vitro NEET [2Fe-2S] cluster release, MitoNEET; format: biochemical; conditions: recombinant MitoNEET, 37 °C, absorbance 460 nm
T1 construct: MitoNEET ([60]) and NAF-1 ([61]) cytosolic domains and MiNT ([62]) were purified from E. coli as previously published; made in house; host or cells: E. coli
T1 sequence (Q9NZ45 32-108 limits assumed): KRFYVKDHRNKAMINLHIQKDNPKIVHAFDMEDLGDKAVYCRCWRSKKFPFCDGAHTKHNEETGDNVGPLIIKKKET
Protocol: (§5) MitoNEET ([60]) and NAF-1 ([61]) cytosolic domains and MiNT ([62]) were purified from E. coli as previously published. Experiments were performed in 96-well plates at 37 °C with […] of Fe-S cluster in a buffer composed of 50 mM Tris-HCl pH 7 and 100 mM NaCl. dEF3122 was dissolved in dimethyl sulfoxide (DMSO) at 10 mM. CPEP31 was dissolved in PBS at 10 mM. After 20 min of incubation of the protein with the molecule, NEET cluster release was followed by measuring the absorbance at 460 and 800 nm over time using a plate reader (SpectraMax ID3). The absorbance at 460 nm was corrected for the variation of the baseline (absorbance at 800 nm) over time and normalized at 1 at the beginning of the kinetics.

[14] = target: T2, NAF-1 (Homo sapiens, UniProt Q8N5K1); experiment: In vitro NEET [2Fe-2S] cluster release, NAF-1; format: biochemical; conditions: recombinant NAF-1, 37 °C, absorbance 460 nm
T2 construct: MitoNEET ([60]) and NAF-1 ([61]) cytosolic domains and MiNT ([62]) were purified from E. coli as previously published; made in house; host or cells: E. coli
T2 sequence (Q8N5K1 61-135 limits assumed): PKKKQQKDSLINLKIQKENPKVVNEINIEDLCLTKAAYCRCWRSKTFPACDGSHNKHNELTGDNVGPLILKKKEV
Protocol: as §5

[15] = target: T3, MiNT (Homo sapiens, UniProt P0C7P0); experiment: In vitro NEET [2Fe-2S] cluster release, MiNT; format: biochemical; conditions: recombinant MiNT, 37 °C, absorbance 460 nm
T3 construct: made in house; host or cells: E. coli
T3 sequence (P0C7P0 15-127): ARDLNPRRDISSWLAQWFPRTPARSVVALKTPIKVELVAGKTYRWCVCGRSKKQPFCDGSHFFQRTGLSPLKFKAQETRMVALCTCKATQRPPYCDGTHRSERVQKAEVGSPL
Protocol: as §5

[16] = not given; remark: listed apart in the source
[17] = test system: influenza A H1N1 virus; conditions: 48 hr post-treatment, A549
[18] = test system: EBV; conditions: normalized mean of EBV replication readout

With `COc1ccc(C(=O)Nc2sc3c(c2C(=O)O)CCC(C)(C)C3)cc1OC` [dEF2788] the solubility kinetic at 30 min [1] was 104 µM (≈ 40.5 µg/mL), the microsomal CLint at 1 µM [2] was < 14 µL/min/mg and the microsomal CLint at 1 µM [3] was 14 µL/min/mg. The hepatocyte CLint at 1 µM [4] was 31 µL/min/1e6 cells, the hepatocyte CLint at 1 µM [5] was 116 µL/min/1e6 cells and the fraction unbound at 6 h, 10 µM [6] was < 0.01. It also gave a half-life ([7]; iv 0.5 mg/kg, read-out: T1/2 iv (converted)) of 48 min, a Cmax ([7]; po 5 mg/kg (dose for AUC)) of 71 ng/mL and a bioavailability ([7]; po 5 mg/kg, iv 0.5 mg/kg) of 26%. For the same molecule, the “activity against Dengue virus replication” value [8] was “active in vitro against Dengue virus replication” and the IC50 [9] was 50 nM.
With EVVLFLLNVF [CPEP31] the “HIV1 Norm MEAN” value [10] was 8.9, the “HCV Norm MEAN” value [11] was 0.4448 and the “Francisella novicida Norm AUC” value [12] was 0.6912. The “interaction by [2Fe-2S] cluster release assay” value (from here on “interaction”) [13] was “Interactions were validated”, the “interaction” value [14] was “Interactions were validated” and the “interaction” value [15] was “Interactions were validated”. The selectivity ratio was > 12, the CC50 [16] was > 100000 nM and the “Neuraminidase activity normalized to vehicle” value ([17]; 200 µM peptide) was 0,0494. The “Neuraminidase activity normalized to vehicle” value ([17]; 0,823 µM peptide) was 0,7352, the “Neuraminidase activity normalized to vehicle” value ([17]; 22,2 µM peptide) was 0,2851 and the “Neuraminidase activity normalized to vehicle” value ([17]; 2,4691 µM peptide) was 0,951. For the same molecule, the “Neuraminidase activity normalized to vehicle” value ([17]; 7,4074 µM peptide) was 0,7335, the “Neuraminidase activity normalized to vehicle” value ([17]; 66,6667 µM peptide) was 0,114 and the “EBV Norm MEAN” value [18] was 0.8028.
